Data on eight molecules can be found in EP2939983A1, “Titanium dioxide-catalysed oxidation method” (Sistiana Inversiones S.L., priority 2014, dated 2015).

The conditions of data set [1]: 5% H2O2, 10g/L TiO2 (aeroxide P90), pH=3 (HCl), 0.025 mM Rhodamine B; reaction order 0.66.
Text: The accuracy of the reaction order was enhanced to be adjusted to 0.66 in this case, in order to improve the graph's sensitivity. The absorbance of Rhodamine B present in the mixture at each time point was employed to determine rate of oxidation. The first mixture was supplied with oxygen throughout the reaction at regular intervals by extracting samples and reintroducing them into the reaction mixture. The second mixture was not supplied with oxygen throughout the reaction, i.e. only samples of the initial and final mixture were taken.
A short description of data set [2]: Rhodamine B degradation kinetics with TiO2 catalyst, H2O2 and acid in the absence of light. The source says: The walls of a beaker (Ǿ = 10 cm) were covered with aluminum foil to prevent any light exposure to the inside. A magnetic stirrer was introduced in a smaller beaker (Ǿ = 6.5 cm), which was then covered on the top with parafilm and a small hole was punched thereon. The smaller beaker was introduced concentrically into the larger one. To immobilize the inner beaker, a foam was placed between the walls of the two vessels. A cover of the same foam (Ǿ = 10 cm, 1.5 cm thick) was placed on the top of the larger beaker. In the cover, a hole (Ǿ = 0.5 cm) close to the inside wall of the inner beaker facilitated sample collection in the vortex formed during the agitation of the reaction mixture. A second hole situated on the opposite side of the first one was punched in order to facilitate pH measurements.
The catalytic reactor was placed on the stirrer (VMS-C4, VWR) at around 750 rpm. Then, the inner beaker was filled with the help of a funnel with the required amount of TiO2. Immediately afterwards, the appropriate amount of 9.8 M H2O2 and deionised water, in each case, for a total volume of 20 mL, was introduced. The mixture was stirred for 1 minute, and 20 mL of the required concentration of Rhodamine B were then added. In the cases where an acid was employed, the corresponding amount of acid to achieve a particular pH was introduced in the reaction mixture before the addition of Rhodamine B. After 3 minutes stirring, an aliquot of 1 mL was taken through a plastic Pasteur pipette and was introduced in an Eppendorf tube (1.5 mL). The sample was centrifugated (Mikro 120, Hettich Zentrifugen) at 14000 rpm for 1 minute. The supernatant was centrifugated again under the same conditions and the remaining supernatant was placed in a 1.5 mL cuvette for analysis in a spectrophotometer (Du 730, Beckman Coulter). […] Finally, the TiO2 and the liquid were reintroduced into the inner beaker. The procedure, starting with the 1 mL aliquot extraction, was repeated (at least) every 3 min for a maximum of 2 h. The experiment was repeated 4 times for every imposed condition.
Linear regressions were conducted with the obtained data. […] The kinetic constant of the reaction was the parameter used to compare the oxidative capacity of the different oxidation conditions in the method of the invention.

The conditions of data set [3]: in water; cited from earlier work.
The mark [4] stands for this setting: 0.025 mM Rhodamine B, 30g/L of TiO2 (aeroxide P90), 5% H2O2 solution.
[5] abbreviates: 0.025 mM Rhodamine B, 30g/L of TiO2 (aeroxide P90), 5% H2O2 solution, pH 2.0.
Where [6] appears, read: 0.025 mM Rhodamine B, 30g/L of TiO2 (aeroxide P90), 5% H2O2 solution, pH 2.0, absence of light.
The mark [7] stands for this setting: 0.050 mM Rhodamine B, 10g/L of TiO2 (aeroxide P90), 5% H2O2 solution, pH of 2.

In the case of `O=O` [oxygen], the “kinetic constant greater than that of the reaction not supplied with oxygen” value in data set [1] was “about 15%”.

Turning to `O=S(=O)(O)O` [Sulfuric, sulfuric acid], the “Rate constants for degradation kinetics (k554/min^-1), pH 1.5” value (from here on “Rate constants … (k554/min^-1), pH 1.5”) in data set [2] (setting [4]) is given as 0.2360±0.0430 min^-1. For the same molecule, the “Rate constants for degradation kinetics (k554/min^-1), pH 2.0” value (“Rate constants … (k554/min^-1), pH 2.0” for short) in data set [2] (setting [5]) is given as 0.1124±0.0112 min^-1. Moreover, the results for the “Rate constants for degradation kinetics (k544/min^-1)” value (“Rate constants … (k544/min^-1)” for short) in data set [2] (setting [6]) and in data set [2] (setting [7]) were 0.1124 ± 0.0112 min⁻¹ and 0.0293 ± 0.0021 min⁻¹, respectively.

Broadly, the pKa is the negative logarithm of the acid dissociation constant. Turning to `O=C(O)C(F)(F)F` [trifluoroacetic acid], the pKa in data set [3] is -0.25.

With `Cl` [Hydrochloric, hydrochloric acid], the “Rate constants … (k554/min^-1), pH 1.5” value in data set [2] was found to be 0.3370±0.0990 min^-1. The “Rate constants … (k554/min^-1), pH 2.0” value in data set [2] (pH 2) is on record as 0.1260±0.0173 min^-1.

With `O=S(O)O` [sulfurous acid], the pKa in data set [3] is listed as 1.9.

`[O]=[Cr](=[O])([OH])[OH]` [chromic acid]: the pKa in data set [3] is listed as -0.1.

As to `[O-][Cl+3]([O-])([O-])O` [Perchloric, perchloric acid], the “Rate constants … (k554/min^-1), pH 1.5” value in data set [2] (setting [4]) was found to be 0.3550±0.1180 min^-1. Further, the “Rate constants … (k554/min^-1), pH 2.0” value in data set [2] (setting [5]) is recorded as 0.1194±0.0095 min^-1. In addition, the “Rate constants … (k544/min^-1)” value in data set [2] (setting [6]) amounted to 0.1194 ± 0.0095 min⁻¹; in data set [2] (setting [7]), 0.0318 ± 0.0021 min⁻¹.

Turning to `O=CO` [Formic, formic acid, reference compound], in data set [2] (pH 2), the “Rate constants … (k544/min^-1)” value worked out at 0.0263 ± 0.0035 min⁻¹.
